ChEMBL document CHEMBL3885861, “Open TG-GATES”

Species on record: Rattus norvegicus
Assay: Open TG-GATES - Regimen: Single
Format: toxicity, organism-based, Sprague-Dawley
Set-up: regimen Single, gender Male, age 6 weeks
Conditions: in vivo, po, route gavage; for gamma-GTP / ALP / ALT / AST / BUN / CRE / Ca / Cl / DBIL / GLC / IP / K / LDH / Na / PL / RALB / TBIL / TC / TG / TP: tissue Plasma; for APTT / Bas / Eos / Fbg / Hb / Ht / Lym / MCH / MCHC / Mono / Neu / Plat / RBC / Ret / WBC: tissue Blood; for KIDNEY_L / KIDNEY_R / KIDNEY_TOTAL: tissue Kidney; for LIVER: tissue Liver
[1] = 10 mg/kg, 3 h, dose level Middle
[2] = 10 mg/kg, 6 h, dose level Middle
[3] = 10 mg/kg, 9 h, dose level Middle
[4] = 10 mg/kg, 24 h, dose level Middle

For `O=C(CCCN1CCC(O)(c2ccc(Cl)cc2)CC1)c1ccc(F)cc1` [HALOPERIDOL], the gamma-GTP (3 mg/kg, 24 h, dose level Low) was 1.6 IU/L, the TERMINAL_BW [1] was 204.5 g and the APTT [1] was 17.3 s. The Bas [1] was 0%, the Eos [1] was 0.4% and the Fbg [1] was 202.4 mg/dL. For the same compound, the Hb [1] was 13.2 g/dL, the Ht [1] was 39.7% and the Lym [1] was 71.2%. For the same compound, the MCH [1] was 22 pg, the MCHC [1] was 33.1% and the Mono [1] was 12%. For the same compound, the Neu [1] was 16.4%, the Plat [1] was 97.9 x10_4/uL and the RBC [1] was 598.8 x10_4/ul. For the same compound, the Ret [1] was 8.8%, the WBC [1] was 87.7 x10_2/uL and the KIDNEY_L [1] was 0.9 g. It also gave a KIDNEY_R [1] of 1 g, a KIDNEY_TOTAL [1] of 1.9 g and an LIVER [1] of 9.9 g. The ALP [1] was 802.2 IU/L, the ALT [1] was 36 IU/L and the AST [1] was 59.8 IU/L. The BUN [1] was 11.6 mg/dL, the CRE [1] was 0.6 mg/dL and the Ca [1] was 10.8 mg/dL. For the same compound, the Cl [1] was 107 meq/L, the DBIL [1] was 0.02 mg/dL and the GLC [1] was 216.2 mg/dL. It also gave an IP [1] of 10.1 mg/dL, a K [1] of 4.5 meq/L and an LDH [1] of 107.4 IU/L. For the same compound, the Na [1] was 140 meq/L, the PL [1] was 141.2 mg/dL and the RALB [1] was 3.5 g/dL. It also gave a TBIL [1] of 0.3 mg/dL, a TC [1] of 80.8 mg/dL and a TG [1] of 30 mg/dL. It also gave a TP [1] of 5.5 g/dL, a gamma-GTP [1] of 1.2 IU/L and a TERMINAL_BW [2] of 201.2 g. The APTT [2] was 16.6 s, the Bas [2] was 0% and the Eos [2] was 0.8%. It also gave a Fbg [2] of 201.2 mg/dL, a Hb [2] of 13.8 g/dL and a Ht [2] of 41.9%. It also gave a Lym [2] of 69.8%, an MCH [2] of 21.6 pg and an MCHC [2] of 32.9%. The Mono [2] was 5.5%, the Neu [2] was 24% and the Plat [2] was 99.7 x10_4/uL. For the same compound, the RBC [2] was 637.2 x10_4/ul, the Ret [2] was 8.6% and the WBC [2] was 75.3 x10_2/uL. The KIDNEY_L [2] was 0.9 g, the KIDNEY_R [2] was 1 g and the KIDNEY_TOTAL [2] was 1.9 g. It also gave an LIVER [2] of 8.9 g, an ALP [2] of 922.8 IU/L and an ALT [2] of 31.8 IU/L. The AST [2] was 56.5 IU/L, the BUN [2] was 8.8 mg/dL and the CRE [2] was 0.4 mg/dL. The Ca [2] was 10.4 mg/dL, the Cl [2] was 107.2 meq/L and the DBIL [2] was 0.025 mg/dL. For the same compound, the GLC [2] was 189.2 mg/dL, the IP [2] was 10.2 mg/dL and the K [2] was 4.7 meq/L. The LDH [2] was 111 IU/L, the Na [2] was 139.5 meq/L and the PL [2] was 130.5 mg/dL. The RALB [2] was 3.5 g/dL, the TBIL [2] was 0.4 mg/dL and the TC [2] was 75.2 mg/dL. It also gave a TG [2] of 29.5 mg/dL, a TP [2] of 5.5 g/dL and a gamma-GTP [2] of 1.2 IU/L. The TERMINAL_BW [3] was 195.8 g, the APTT [3] was 17 s and the Bas [3] was 0%. For the same compound, the Eos [3] was 0.4%, the Fbg [3] was 210 mg/dL and the Hb [3] was 13.9 g/dL. It also gave a Ht [3] of 41.8%, a Lym [3] of 75.8% and an MCH [3] of 21.8 pg. For the same compound, the MCHC [3] was 33.4%, the Mono [3] was 7.8% and the Neu [3] was 16%. For the same compound, the Plat [3] was 101.8 x10_4/uL, the RBC [3] was 641.2 x10_4/ul and the Ret [3] was 8.6%. The WBC [3] was 63.2 x10_2/uL, the KIDNEY_L [3] was 0.9 g and the KIDNEY_R [3] was 0.9 g. For the same compound, the KIDNEY_TOTAL [3] was 1.7 g, the LIVER [3] was 8.4 g and the ALP [3] was 812.8 IU/L. For the same compound, the ALT [3] was 27.8 IU/L, the AST [3] was 53.8 IU/L and the BUN [3] was 9.2 mg/dL. The CRE [3] was 0.6 mg/dL, the Ca [3] was 10.1 mg/dL and the Cl [3] was 107 meq/L. It also gave a DBIL [3] of 0.024 mg/dL, a GLC [3] of 200.2 mg/dL and an IP [3] of 11.1 mg/dL. For the same compound, the K [3] was 4.6 meq/L, the LDH [3] was 100 IU/L and the Na [3] was 139.6 meq/L. It also gave a PL [3] of 134.2 mg/dL, an RALB [3] of 3.7 g/dL and a TBIL [3] of 0.4 mg/dL. It also gave a TC [3] of 76.4 mg/dL, a TG [3] of 25.8 mg/dL and a TP [3] of 5.5 g/dL. For the same compound, the gamma-GTP [3] was 2.6 IU/L, the TERMINAL_BW [4] was 213.1 g and the APTT [4] was 16.2 s. The Bas [4] was 0%, the Eos [4] was 1.2% and the Fbg [4] was 193.4 mg/dL. For the same compound, the Hb [4] was 14.2 g/dL, the Ht [4] was 42.4% and the Lym [4] was 82%. For the same compound, the MCH [4] was 21.9 pg, the MCHC [4] was 33.5% and the Mono [4] was 6.8%. It also gave a Neu [4] of 10%, a Plat [4] of 114.7 x10_4/uL and an RBC [4] of 648 x10_4/ul. The Ret [4] was 8.2%, the WBC [4] was 76.5 x10_2/uL and the KIDNEY_L [4] was 1 g. It also gave a KIDNEY_R [4] of 0.9 g, a KIDNEY_TOTAL [4] of 1.9 g and an LIVER [4] of 10.5 g. It also gave an ALP [4] of 1019.6 IU/L, an ALT [4] of 32.6 IU/L and an AST [4] of 62.2 IU/L. The BUN [4] was 23.8 mg/dL, the CRE [4] was 0.5 mg/dL and the Ca [4] was 11.2 mg/dL. For the same compound, the Cl [4] was 104.6 meq/L, the DBIL [4] was 0.034 mg/dL and the GLC [4] was 182.4 mg/dL. For the same compound, the IP [4] was 8.2 mg/dL, the K [4] was 5 meq/L and the LDH [4] was 102.4 IU/L. The Na [4] was 140 meq/L, the PL [4] was 160.2 mg/dL and the RALB [4] was 3.9 g/dL. The TBIL [4] was 0.3 mg/dL, the TC [4] was 79.8 mg/dL and the TP [4] was 6 g/dL. For the same compound, the gamma-GTP [4] was 1 IU/L.
